Reference: PubChem BioAssay AID1963837 (Molecular Pharmacology Branch, DTP, NCI, 2024)
pIC50: −log10 of the molar value.

Tested on: 843126-344-R-J1-PDC complex spheroid viability
Assay: Anticancer human tumor 843126-344-R-J1-PDC patient-derived melanoma cell line growth inhibition [POLQ]
Conditions: for pIC50: curve of first compound; for viability, T/C: stronger effect = lower value; active = viability on the fitted dose curve at most 10% of control; inactive = the rest
How it was run: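 Growth inhibition in 3D: complex spheroids (tumor PDC, HUVEC, MSC) treated with POLQ inhibitor combinations; where Cmax unknown, highest tested concentration 10 microM, except SN-38 at 1 microM.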

[1] = second compound 0.0316 µM, first compound 0.0316 µM
[2] = second compound 0.0316 µM, first compound 0.1 µM
[3] = second compound 0.0316 µM, first compound 0.316 µM
[4] = second compound 0.0316 µM, first compound 1 µM
[5] = second compound 0.1 µM, first compound 0.0316 µM
[6] = second compound 0.1 µM, first compound 0.1 µM
[7] = second compound 0.1 µM, first compound 0.316 µM
[8] = second compound 0.1 µM, first compound 1 µM
[9] = second compound 0.316 µM, first compound 0.0316 µM
[10] = second compound 0.316 µM, first compound 0.1 µM
[11] = second compound 0.316 µM, first compound 0.316 µM
[12] = second compound 0.316 µM, first compound 1 µM
[13] = second compound 1 µM, first compound 0.0316 µM
[14] = second compound 1 µM, first compound 0.1 µM
[15] = second compound 1 µM, first compound 0.316 µM
[16] = second compound 1 µM, first compound 1 µM
[17] = second compound 3.16 µM, first compound 0.0316 µM
[18] = second compound 3.16 µM, first compound 0.1 µM
[19] = second compound 3.16 µM, first compound 0.316 µM
[20] = second compound 3.16 µM, first compound 1 µM
[21] = second compound 10 µM, first compound 0.0316 µM
[22] = second compound 10 µM, first compound 0.1 µM
[23] = second compound 10 µM, first compound 0.316 µM
[24] = second compound 10 µM, first compound 1 µM
[25] = second compound 0.0316 µM, first compound 3.16 µM
[26] = second compound 0.0316 µM, first compound 10 µM
[27] = second compound 0.1 µM, first compound 3.16 µM
[28] = second compound 0.1 µM, first compound 10 µM
[29] = second compound 0.316 µM, first compound 3.16 µM
[30] = second compound 0.316 µM, first compound 10 µM
[31] = second compound 1 µM, first compound 3.16 µM
[32] = second compound 1 µM, first compound 10 µM
[33] = second compound 3.16 µM, first compound 3.16 µM
[34] = second compound 3.16 µM, first compound 10 µM
[35] = second compound 10 µM, first compound 3.16 µM
[36] = second compound 10 µM, first compound 10 µM
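For viability, T/C in this document: spheroids exposed to drugs for seven days before readout.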

CCc1c2c(nc3ccc(O)cc13)-c1cc3c(c(=O)n1C2)COC(=O)[C@]3(O)CC + Cc1cccc(N(C)C(=O)C2C(O)CCN2c2nc(C)cc(C(F)(F)F)c2C#N)c1
inactive: viability, T/C (second compound 0.0316 µM, first compound 0.00316 µM) 73% | viability, T/C (second compound 0.0316 µM, first compound 0.01 µM) 52.8% | viability, T/C [1] 66.4% | viability, T/C [2] 67.3% | viability, T/C [3] 54.6% | viability, T/C [4] 50.5% | viability, T/C (second compound 0.1 µM, first compound 0.00316 µM) 72.8% | viability, T/C (second compound 0.1 µM, first compound 0.01 µM) 52.8% | viability, T/C [5] 60.6% | viability, T/C [6] 58.8% | viability, T/C [7] 60.8% | viability, T/C [8] 42.8% | viability, T/C (second compound 0.316 µM, first compound 0.00316 µM) 70.5% | viability, T/C (second compound 0.316 µM, first compound 0.01 µM) 61.6% | viability, T/C [9] 58.3% | viability, T/C [10] 58.6% | viability, T/C [11] 53.6% | viability, T/C [12] 43.6% | viability, T/C (second compound 1 µM, first compound 0.00316 µM) 66.6% | viability, T/C (second compound 1 µM, first compound 0.01 µM) 58.5% | viability, T/C [13] 55.1% | viability, T/C [14] 60.9% | viability, T/C [15] 59.6% | viability, T/C [16] 44.6% | viability, T/C (second compound 3.16 µM, first compound 0.00316 µM) 67.5% | viability, T/C (second compound 3.16 µM, first compound 0.01 µM) 60.9% | viability, T/C [17] 50.3% | viability, T/C [18] 67.7% | viability, T/C [19] 66.1% | viability, T/C [20] 45.7% | viability, T/C (second compound 10 µM, first compound 0.00316 µM) 64.8% | viability, T/C (second compound 10 µM, first compound 0.01 µM) 68.3% | viability, T/C [21] 67% | viability, T/C [22] 66.2% | viability, T/C [23] 58.6% | viability, T/C [24] 47.8%
6.13: pIC50 (second compound 0.1 µM)
6.40: pIC50 (second compound 0.316 µM)
< 6.00: pIC50 (second compound 1 µM) | pIC50 (second compound 3.16 µM) | pIC50 (second compound 10 µM)
6.00: pIC50 (second compound 0.0316 µM)

O=c1[nH]cc(F)c(=O)[nH]1 + Nc1ccc(C#CCN(C(=O)Cc2ncc(C(F)(F)F)cc2C(F)(F)F)c2ccc(F)cc2)nn1
inactive: viability, T/C [1] 101% | viability, T/C [2] 94.7% | viability, T/C [3] 92.9% | viability, T/C [4] 92.9% | viability, T/C [25] 95.4% | viability, T/C [26] 85.5% | viability, T/C [5] 103% | viability, T/C [6] 110% | viability, T/C [7] 103% | viability, T/C [8] 89% | viability, T/C [27] 82.4% | viability, T/C [28] 93.4% | viability, T/C [9] 92.4% | viability, T/C [10] 109% | viability, T/C [11] 101% | viability, T/C [12] 101% | viability, T/C [29] 111% | viability, T/C [30] 92.6% | viability, T/C [13] 110% | viability, T/C [14] 107% | viability, T/C [15] 108% | viability, T/C [16] 89.5% | viability, T/C [31] 94.3% | viability, T/C [32] 90.6% | viability, T/C [17] 107% | viability, T/C [18] 87.3% | viability, T/C [19] 82.8% | viability, T/C [20] 82.3% | viability, T/C [33] 80% | viability, T/C [34] 82.4% | viability, T/C [21] 81.9% | viability, T/C [22] 86.2% | viability, T/C [23] 84.6% | viability, T/C [24] 81.9% | viability, T/C [35] 88% | viability, T/C [36] 76.7%
< 5.00: pIC50 (second compound 0.0316 µM) | pIC50 (second compound 0.1 µM) | pIC50 (second compound 0.316 µM) | pIC50 (second compound 1 µM) | pIC50 (second compound 3.16 µM) | pIC50 (second compound 10 µM)

CC1COCCN1c1cc(C2(O)CC3CCC(C2)O3)c2cnn(-c3ccn[nH]3)c2n1 (stereo not drawn) + COC1C(OC(N)=O)C(O)C(Oc2ccc3c(O)c(NC(=O)c4ccc(O)c(CC=C(C)C)c4)c(=O)oc3c2C)OC1(C)C
6.39: pIC50 (second compound 0.316 µM)
6.31: pIC50 (second compound 0.1 µM) | pIC50 (second compound 10 µM)
6.40: pIC50 (second compound 3.16 µM)
inactive: viability, T/C [1] 83.6% | viability, T/C [2] 66.6% | viability, T/C [3] 53.6% | viability, T/C [4] 38.9% | viability, T/C [25] 22.7% | viability, T/C [26] 14.5% | viability, T/C [5] 78.8% | viability, T/C [6] 78.9% | viability, T/C [7] 53.2% | viability, T/C [8] 38.8% | viability, T/C [27] 27.2% | viability, T/C [28] 18.3% | viability, T/C [9] 92.1% | viability, T/C [10] 64.9% | viability, T/C [11] 51.5% | viability, T/C [12] 44.5% | viability, T/C [29] 22.5% | viability, T/C [30] 15.1% | viability, T/C [13] 73.2% | viability, T/C [14] 68.3% | viability, T/C [15] 51.4% | viability, T/C [16] 36.3% | viability, T/C [31] 27.4% | viability, T/C [32] 14.7% | viability, T/C [17] 88.7% | viability, T/C [18] 55.5% | viability, T/C [19] 53.2% | viability, T/C [20] 46.8% | viability, T/C [33] 26.1% | viability, T/C [34] 15.6% | viability, T/C [21] 72.5% | viability, T/C [22] 66.9% | viability, T/C [23] 54.7% | viability, T/C [24] 41.6% | viability, T/C [35] 25.6% | viability, T/C [36] 11.7%
6.41: pIC50 (second compound 0.0316 µM) | pIC50 (second compound 1 µM)

CCc1cc2c(N3CCc4c(cc(Cn5ccnc5)cc4-c4cn(C)nc4C(F)(F)F)C3=O)ccnc2c(OC)n1 + Cc1cccc(N(C)C(=O)C2C(O)CCN2c2nc(C)cc(C(F)(F)F)c2C#N)c1
< 5.00: pIC50 (second compound 0.0316 µM) | pIC50 (second compound 0.1 µM) | pIC50 (second compound 0.316 µM) | pIC50 (second compound 1 µM) | pIC50 (second compound 3.16 µM) | pIC50 (second compound 10 µM)
inactive: viability, T/C [1] 91.3% | viability, T/C [2] 79.8% | viability, T/C [3] 80.6% | viability, T/C [4] 83.3% | viability, T/C [25] 69.9% | viability, T/C [26] 61.4% | viability, T/C [5] 90% | viability, T/C [6] 88.4% | viability, T/C [7] 87.1% | viability, T/C [8] 90% | viability, T/C [27] 72.3% | viability, T/C [28] 60.4% | viability, T/C [9] 99.6% | viability, T/C [10] 74.9% | viability, T/C [11] 86% | viability, T/C [12] 78.5% | viability, T/C [29] 69% | viability, T/C [30] 61.2% | viability, T/C [13] 101% | viability, T/C [14] 77.3% | viability, T/C [15] 86.3% | viability, T/C [16] 73.5% | viability, T/C [31] 68% | viability, T/C [32] 55.3% | viability, T/C [17] 100% | viability, T/C [18] 84.8% | viability, T/C [19] 79.3% | viability, T/C [20] 72.4% | viability, T/C [33] 69.3% | viability, T/C [34] 63.1% | viability, T/C [21] 88.2% | viability, T/C [22] 92.2% | viability, T/C [23] 75.5% | viability, T/C [24] 68.8% | viability, T/C [35] 70.7% | viability, T/C [36] 64.4%
